Experimental findings from ChEMBL document CHEMBL6087435, “Prodrugging fungicidal amphotericin B significantly decreases its toxic effects” (Eur J Med Chem, 2025) are described below.

The nature of series [1]: Toxicity in human HEK293 cells assessed as effect on cell morphology at 6.25 uM incubated for 24 hrs by confocal microscopic analysis. To be noted: hek293, 24 h. Format: cell-based.
A short description of series [2]: Toxicity in human HEK293 cells assessed as effect on cell physiology at 6.25 uM incubated for 24 hrs by confocal microscopic analysis. To be noted: hek293, 24 h. It is filed as cell-based.
A short description of series [3]: Toxicity in human HEK293 cells assessed as effect on adherent cells at 6.25 uM incubated for 24 hrs by confocal microscopic analysis. To be noted: hek293, 24 h. It is filed as cell-based.
Series [4] is described as follows: Cytotoxicity against human HEK293 cells assessed as cell viability at 100 uM incubated for 24 hrs by Hoechst 33258 staining based flow cytometry. Format: toxicity. The conditions noted are these: read-out: Activity. Background: In flow cytometry, cells or beads pass a laser one at a time.
The subject of series [5] is HEK293. Nature of the series: Cytotoxicity against human HEK293 cells at 6.25 to 12.5 uM incubated for 24 hrs by Hoechst 33258 staining based flow cytometry. It is filed as toxicity, cell-based. To be noted: hek293, 24 h, dose 6.25-12.5 µM.
For series [6], the system named is Candida albicans. Nature of the series: Antifungal activity against Candida albicans assessed as inhibition of fungal growth by serial dilution assay. It is filed as functional.
Series [7] in a line: Toxicity in human HEK293 cells assessed as reduction in cell confluency at 50 uM incubated for 24 hrs by mitotracker red staining based confocal microscopic analysis. Also noted: scale not given: the % may be the effect or the level left. The conditions noted are these: hek293, 24 h.
Series [8] concerns Candida albicans. Nature of the series: Antifungal activity against Candida albicans ATCC90028 infected in Galleria mellonella larvae assessed as larval survival at 15 mg/kg measured after 6 days. It is filed as functional. The conditions noted are these: time 6 day.
Series [9] relates to Aspergillus fumigatus. Nature of the series: Antifungal activity against Aspergillus fumigatus ATCC204305 infected in Galleria mellonella larvae assessed as increase in larval survival at 15 mg/kg measured after 6 days. Format: functional, organism-based. The conditions noted are these: time 6.0 day.
Series [10] is described as follows: Toxicity in Galleria mellonella larvae assessed as effect on survival at 15 mg/kg measured for 144 hrs. Format: organism-based. The conditions noted are these: in vivo.
Series [11] concerns Candida albicans. Nature of the series: Antifungal activity against Candida albicans ATCC90028 infected in Galleria mellonella larvae assessed as increase in larval survival at 15 mg/kg measured after 6 days. To be noted: time 6.0 day. Format: functional, organism-based.
The test system of series [12] is HEK293. Nature of the series: Cytotoxicity against human HEK293 cells at 12.5 uM incubated for 24 hrs by Hoechst 33258 staining based flow cytometry. Format: toxicity, cell-based. To be noted: hek293, 24 h.
Series [13] is described as follows: Stability in PBS at pH 7.4 assessed as half life by HPLC analysis. Format: physicochemical.
In series [14] the test system is Aspergillus fumigatus. Nature of the series: Antifungal activity against Aspergillus fumigatus assessed as inhibition of fungal growth by serial dilution assay. Format: functional.
A short description of series [15]: Stability in human plasma in PBS at pH 7.4 assessed as half life by HPLC analysis. Format: ADME, cell-free.
The test system of series [16] is HEK293. Nature of the series: Cytotoxicity against human HEK293 cells at 6.25 to 100 uM incubated for 24 hrs by Hoechst 33258 staining based flow cytometry. It is filed as toxicity, cell-based. To be noted: hek293, 24 h, dose 6.25-100 µM.
In series [17] the test system is Candida albicans. Nature of the series: Antifungal activity against Candida albicans SN250 assessed as inhibition of fungal growth by broth dilution assay. Format: functional. In general terms: In broth dilution the organism is exposed to a series of concentrations in liquid medium.
The nature of series [18]: Toxicity in Galleria mellonella larvae assessed as larvae death at 15 mg/kg measured for 144 hrs. The conditions noted are these: in vivo. It is filed as organism-based.
Series [19] can be described thus: Toxicity in human HEK293 cells assessed as effect on cell viability at 50 uM incubated for 24 hrs by confocal microscopic analysis. It is filed as cell-based. To be noted: hek293, 24 h.
A short description of series [20]: Toxicity in human HEK293 cells assessed as effect on mitochondrial morphology at 50 uM incubated for 24 hrs by mitotracker red staining based confocal microscopic analysis. Format: cell-based. To be noted: hek293, 24 h.
A short description of series [21]: Toxicity in human HEK293 cells assessed as effect on polymerized actin signal at 50 uM incubated for 24 hrs by phalloidin conjugated AlexaFluor-488 staining based confocal microscopic analysis. To be noted: hek293, 24 h. Format: cell-based.
A short description of series [22]: Toxicity in human HEK293 cells assessed as effect on polymerized actin pattern at 50 uM incubated for 24 hrs by phalloidin conjugated AlexaFluor-488 staining based confocal microscopic analysis. It is filed as cell-based. To be noted: hek293, 24 h.
For series [23], the system named is Candida albicans. Nature of the series: Antifungal activity against Candida albicans K1 assessed as inhibition of fungal growth. Format: functional.
Series [24] relates to Candida albicans. Nature of the series: Antifungal activity against Candida albicans ATCC90028 infected in Galleria mellonella larvae assessed as larval survival at 15 mg/kg measured after 72 hrs. Format: functional.
A short description of series [25]: Toxicity in human HEK293 cells assessed as reduction in cell viability at 50 uM incubated for 24 hrs by mitotracker red staining based confocal microscopic analysis. To be noted: hek293, 24 h.
Series [26] has as its system Aspergillus fumigatus. Nature of the series: Antifungal activity against Aspergillus fumigatus ATCC204305 infected in Galleria mellonella larvae assessed as larval survival at 15 mg/kg measured after 6 days. Format: functional. The conditions noted are these: time 6 day.

In brackets after ≈: the same amount, converted by molar mass. Activity calls are given as the source filed them.

With `C[C@@H]1[C@H](O)[C@@H](C)/C=C/C=C/C=C/C=C/C=C/C=C/C=C/[C@H](O[C@@H]2O[C@H](C)[C@@H](O)[C@H](N)[C@@H]2O)C[C@@H]2O[C@](O)(C[C@@H](O)C[C@@H](O)[C@H](O)CC[C@@H](O)C[C@@H](O)CC(=O)O[C@H]1C)C[C@H](O)[C@H]2C(=O)O` [AMPHOTERICIN B], the Activity result in [1], in series [2] and in series [3] was “Toxic” in each case. In addition, in series [4], the viability at 24 h, 100 µM is 0%.
For orientation: MIC90 means the lowest concentration that inhibits either 90% of growth or 90% of the strains tested, depending on the study. Usually half-life stands for how long it takes for the measured level to halve. Take `CC(C)OC(=O)OCOC(=O)[C@H]1[C@@H]2C[C@@H](O[C@@H]3O[C@H](C)[C@@H](O)[C@H](N)[C@@H]3O)/C=C/C=C/C=C/C=C/C=C/C=C/C=C/[C@H](C)[C@@H](O)[C@@H](C)[C@H](C)OC(=O)C[C@H](O)C[C@H](O)CC[C@@H](O)[C@H](O)C[C@H](O)C[C@](O)(C[C@@H]1O)O2`: the Activity result is “Toxic” in the series on HEK293 [5]; ~ 10% in series [7]; 10% in the series with Candida albicans [8]; “Non-toxic” in [10]; “Toxic” in the series on HEK293 [12]; “Non-toxic” with HEK293 [16]. Also, the MIC90 in the series on Candida albicans [6] is 2 µg/mL (≈ 1.92 µM); with Aspergillus fumigatus [14], greater than 16 µg/mL. The outcome in the series with Aspergillus fumigatus [9] and in the series with Candida albicans [11] was Active. Moreover, the half-life in series [13] was 7.6 h; in series [15] it was 3.3 h.
By MIC is commonly meant the smallest concentration in the dilution series that meets the test's criterion for growth inhibition. For the compound `C[C@@H]1[C@H](O)[C@@H](C)/C=C/C=C/C=C/C=C/C=C/C=C/C=C/[C@H](O[C@@H]2O[C@H](C)[C@@H](O)[C@H](N)[C@@H]2O)C[C@@H]2O[C@](O)(C[C@@H](O)C[C@@H](O)[C@H](O)CC[C@@H](O)C[C@@H](O)CC(=O)O[C@H]1C)C[C@H](O)[C@H]2NC(=O)C(CO)CO`, the MIC in the series with Candida albicans [17] came to 120 µg/mL (≈ 120 µM).
On to `CCOP(=O)(OCCOC(C)=O)Oc1ccc(COC(=O)N[C@@H]2[C@H](O)[C@H](O[C@H]3/C=C/C=C/C=C/C=C/C=C/C=C/C=C/[C@H](C)[C@@H](O)[C@@H](C)[C@H](C)OC(=O)C[C@H](O)C[C@H](O)CC[C@@H](O)[C@H](O)C[C@H](O)C[C@]4(O)C[C@H](O)[C@@H](C(=O)O)[C@H](C3)O4)O[C@H](C)[C@H]2O)cc1` (stereo partly drawn), for which the Activity result is reported as “Toxic” in the series on HEK293 [5]; ~ 50% in series [7]; 10% in the series with Candida albicans [8]; “Toxic” in series [18]; “Non-toxic” in [19]; “Non-toxic” in [20]. Besides, the Activity result was “Non-toxic” in series [10], “Toxic” with HEK293 [12], “Non-toxic” in series [21] and “Non-toxic” in series [22]. For the same compound, the outcome with Aspergillus fumigatus [9] and with Candida albicans [11] was Active. Besides, the half-life in series [13] was 35 h; in [15], 1.3 h. Also, the MIC90 with Aspergillus fumigatus [14] was greater than 16 µg/mL. In addition, the viability at 24 h, 100 µM in series [4] was roughly 86%.
Take `C[C@@H]1[C@H](O)[C@@H](C)/C=C/C=C/C=C/C=C/C=C/C=C/C=C/[C@H](O[C@@H]2O[C@H](C)[C@@H](O)[C@H](N)[C@@H]2O)C[C@@H]2O[C@](O)(C[C@@H](O)C[C@@H](O)[C@H](O)CC[C@@H](O)C[C@@H](O)CC(=O)O[C@H]1C)C[C@H](O)[C@H]2NC(=O)NCCN`: in the series on Candida albicans [23], the MIC stood at 500 µg/mL (≈ 510 µM).
Take `CCOC(=O)[C@H](C)OP(=O)(OCC)Oc1ccc(COC(=O)OCOC(=O)[C@H]2[C@@H]3C[C@@H](O[C@@H]4O[C@H](C)[C@@H](O)[C@H](N)[C@@H]4O)/C=C/C=C/C=C/C=C/C=C/C=C/C=C/[C@H](C)[C@@H](O)[C@@H](C)[C@H](C)OC(=O)C[C@H](O)C[C@H](O)CC[C@@H](O)[C@H](O)C[C@H](O)C[C@](O)(C[C@@H]2O)O3)cc1` (stereo partly drawn): the Activity entry in the series with HEK293 [5] is “Toxic”; in the series on Candida albicans [8], 40%; in the series with Candida albicans [24] it was 70%; in series [10], “Non-toxic”; with HEK293 [12], “Toxic”; in series [25], “Toxic”. Moreover, the Activity entry in the series on HEK293 [16] was “Toxic”. Moreover, the MIC90 in the series on Candida albicans [6] and with Aspergillus fumigatus [14] was 2 µg/mL (≈ 1.52 µM) each time. Besides, the result in the series on Aspergillus fumigatus [9] and with Candida albicans [11] was Active. Besides, the half-life in series [13] is 2.8 h; in series [15], 2.2 h.
Consider `CCOC(=O)[C@H](C)OP(=O)(OCC)Oc1ccc(COC(=O)N[C@@H]2[C@H](O)[C@H](O[C@H]3/C=C/C=C/C=C/C=C/C=C/C=C/C=C/[C@H](C)[C@@H](O)[C@@H](C)[C@H](C)OC(=O)C[C@H](O)C[C@H](O)CC[C@@H](O)[C@H](O)C[C@H](O)C[C@]4(O)C[C@H](O)[C@@H](C(=O)O)[C@H](C3)O4)O[C@H](C)[C@H]2O)cc1` (stereo partly drawn), for which the Activity entry in the series on HEK293 [5] was “Toxic”; in series [7] it was ~ 50%; with Aspergillus fumigatus [26] it was 40%; in the series on Candida albicans [8], 10%; in series [19] it was “Non-toxic”; in series [20] it was “Non-toxic”. Further, the Activity entry is “Non-toxic” in [10], “Toxic” in the series with HEK293 [12], “Non-toxic” in [21] and “Non-toxic” in series [22]. Moreover, the outcome in the series with Aspergillus fumigatus [9] and in the series with Candida albicans [11] was Active. The results for the half-life in series [13] and in [15] were 18 h and 4.5 h, respectively. Moreover, in the series on Aspergillus fumigatus [14], the MIC90 is greater than 16 µg/mL. Also, the viability at 24 h, 100 µM in [4] is roughly 78%.
